How the values were obtained:
[1] = test system: KO mice; experiment: Liver light and electron microscopy of treated KO mice; assay type: in vivo, mouse; conditions: 7.5 mg/kg SC 3x/week from 2 days of age, day 17-19
Protocol: The PBS-injected or PEGylated htCBS conjugate, such as 20NHS PEG-htCBS C15S, treated KO mice were sacrificed on day 17-19 and liver samples were processed for histological analysis by optical microscopy. The histological assessment was carried out in a blinded fashion. Livers were removed and were fixed for 24 hours with 4% paraformaldehyde in PBS (pH 7.4). Tissue blocks for histology were trimmed, dehydrated with an ethanol series followed by acetone, acetone-xylene mixture, and xylene, then embedded in paraffin. In parallel, small tissue blocks (around 4 mm×2 mm) fixed with paraformaldehyde were rapidly frozen in petrol ether cooled with dry ice, and stored at −50° C. for detection of apolar lipids. Paraffin sections 4 μm thick were deparaffinized in xylene and after isopropyl alcohol step rehydrated with ethanol (96%, 70%, 60%). Tissue sections were stained with hematoxylin and eosin (H&E) to evaluate histopathological changes. Masson trichrome staining was performed for detection of fibrosis. Steatosis was verified using Oil Red O staining for detection of apolar lipids in fixed-frozen sections that was 10 μm thick and cut with a Leica Cryomicrotome (CM 1850). The sections were viewed and photographed with a Nikon light microscope (E800) equipped with Olympus digital camera (DP70). […]

[2] = test system: I278T mice; experiment: Eye defects (ciliary zonule) in I278T mice; assay type: in vivo, mouse; conditions: 7.5 mg/kg SC 3x/week from 2 days to 4 months of age
Protocol: Mice were subjected to perfusion fixation with 4% paraformaldehyde in 1×PBS pH 7.4 (4% PFA) to preserve the walls of the eye globe. Eyes were carefully surgically removed, submerged into 4% PFA and a small hole was carefully made in the posterior globe of the eye right below the optic nerve to allow the fixative to permeate to the interior of the eye and fixate the structures overnight at 4° C. The samples were washed 3 times using filtered 1×PBS pH 7.4. After washing, the posterior globe of the eye was carefully dissected down to the level of the ciliary epithelium to expose the ciliary zonule. The sample was placed in 8% BSA blocking solution for 2 hours with shaking. After blocking, MAGP1 antibodies (Sigma) diluted 1:50 in 4% BSA were added to the sample and stored at 4° C. overnight. The next day, the sample was washed 6 times using 1×PBS pH 7.4, and Alexa 488 secondary antibodies (1:200, Invitrogen) were added to the sample and incubated for 2 hours at room temperature with shaking. […]
The changes in metabolite levels in plasma were measured in I278T (+/−) healthy heterozygous control mice, untreated −/− affected homozygous control mice, and 20NHS PEG-htCBS C15S-treated −/− homozygous I278T mice. […] Levels measured beginning at 72 hours after the injection as mice were on the treatment from 2 days of age.

[3] = test system: Hcy, Cth, Cys, Met; experiment: Diet study (regular vs Met-restricted diet) in I278T mice: plasma metabolites; assay type: in vivo
Protocol: A diet study was performed in I278T mice and analyze them. Plasma metabolites of 10 weeks old mice: +/− I278T (control), −/− I278T (negative control), and −/− treated with 20NHS PEG-[…] (OT-58) mice. Each group was further divided into subgroups: one on a regular diet (8.2 g/kg Met TD.01084 diet+zinc water) (REG) and one on a methionine-restricted diet (0.5 g/kg Met TD.110591 diet+betaine water) (MRD). Treatment was begun at W5 of age.

“20NHS PEG-htCBS C15S: htCBS C15S PEGylated with ME-200GS PEG (20 kDa linear NHS ester-activated PEG)” was tested, and the “liver parenchyma, light microscopy” value [1] was “regular liver architecture and minimal anizokaryosis”, the “eye defects (zonular fibers)” value [2] was “positive effect on the eye defects” and the “plasma Cth” value ([3]; −/− I278T on MRD diet) was 10 µM. For the same substance, the “plasma Hcy” value ([3]; −/− I278T on MRD diet (41 μM untreated)) was 2 µM, the “plasma Cth” value ([3]; −/− I278T on REG diet) was 113 µM and the “plasma Met” value ([3]; −/− I278T on REG diet) was 66 µM. For the same substance, the “plasma Hcy” value ([3]; −/− I278T on REG diet (356 μM untreated)) was 50 µM, the “plasma Hcy” value ([3]; −/− I278T on REG diet (356 μM untreated), listed as OT-58) was 51 µM and the “plasma Cys” value ([3]; −/− I278T, MRD diet and/or treatment) was “normalize plasma levels of Cys”.
